Earlier results as cited in US7368472B2, “1,2,4-Triaminobenzene derivatives useful for treating disorders of the central nervous system” (priority 2002, dated 2008).

Legend:
[1] = test system: electrically induced seizures, seizures induced chemically by pentylenetetrazole, picrotoxin and NMDA, DBA/2 mouse; settings: oral and intraperitoneal administration, rats and mice
[2] = test system: amygdala kindling model of complex partial seizures; settings: in vivo
[3] = test system: incidence of seizures in epileptic patients
[4] = test system: K(+) current in neuronal cells
[5] = test system: kainic acid-induced status epilepticus; settings: rat
hippocampal kindling = settings: rat
[6] = test system: animal models of anxiety-like behaviour; settings: in vivo

CCOC(=O)Nc1ccc(NCc2ccc(F)cc2)cc1N [Retigabine, N-(2-amino-4-(4-fluorobenzylamino)-phenyl) carbamic acid ethyl ester]
activity in anticonvulsant tests [1]: active | activity in amygdala kindling model [2]: active | reduction of seizure incidence in clinical trials [3]: effectiveness in reducing the incidence of seizures | activation of K(+) current [4]: activate a K(+) current | neuroprotection after status epilepticus [5]: prevent limbic neurodegeneration and the expression of markers of apoptosis | progression of hippocampal kindling (hippocampal kindling): delay the progression of hippocampal kindling | activity in models of anxiety-like behaviour [6]: active
